According to patent publication US8993585B2, “Cyclic amine substituted pyrimidinediamines as PKC inhibitors” (Rigel Pharmaceuticals, Inc., priority 2007, dated 2015):

Tested on: Human primary T cells
Test: IL-2 ELISA, Human Primary T Cell, Anti-CD3+CD28+ (Example 3)
Type: cell-based
Details: anti-CD3+CD28 stimulation
Procedure: Human primary T cell isolation and culture: Human primary T cells were prepared as follows. […] The cells at the serum:ficoll interface were recovered and washed twice with 5 volumes of PBS. […] The primary T-cells were then washed twice with PBS to remove the IL-2.
Primary T cell stimulation and IL2 ELISA: Human primary T cells (100,000 cells per well) were pre-incubated with or without test compound in Yssel's medium for 1 hr at 37° C. Cells were then stimulated by transferring them to round-bottom 96-well plates pre-coated with 1 ug/ml αCD3 and 5 μg/ml αCD28. For counter assay, cells were instead stimulated by adding 8× stock solutions of PMA and ionomycin in Yssels (for final concentrations of 0.5 ng/ml PMA and 0.1 uM ionomycin, both from Calbiochem).

Row | Structure (SMILES) | IC50 (24 hours) [µM] | IC50 (Homo sapiens, T-cell, 24 h) [µM]
1 | CN1C(C)(C)CC(Nc2ccnc(Nc3ccc(N4CCN(S(C)(=O)=O)CC4)c(C(F)(F)F)c3)n2)CC1(C)C [Compound I-228] | 0.72 | 
2 | CN1CCN(c2ccc(Nc3nccc(NC4CC(C)(C)N(C)C(C)(C)C4)n3)cc2C(F)(F)F)CC1 [Compound I-229] | 0.585 | 
3 | CN1C(C)(C)CC(Nc2nc(Nc3ccc(C(=O)NC4CC4)c(C(F)(F)F)c3)ncc2F)CC1(C)C [Compound I-230] | 1.09 | 
4 | CN1C(C)(C)CC(Nc2nc(Nc3ccc(OC(F)(F)F)cc3)ncc2F)CC1(C)C [Compound I-231] |  | 1.75
5 | CN1C(C)(C)CC(Nc2nc(Nc3ccc(N4CCCCC4)c(C(F)(F)F)c3)ncc2F)CC1(C)C [Compound I-233] | 1.6 | 
6 | CN1C(C)(C)CC(Nc2nc(Nc3ccc(N4CCCC4)c(OC(F)F)c3)ncc2F)CC1(C)C [Compound I-237] | 0.887 | 
7 | CN1C(C)(C)CC(Nc2nc(Nc3cccc(OC(F)(F)F)c3)ncc2Cl)CC1(C)C [Compound I-240] |  | 0.683
8 | CN1C(C)(C)CC(Nc2nc(Nc3ccc(N4CCOCC4)c(C(F)(F)F)c3)ncc2Cl)CC1(C)C [Compound I-241] | 0.361 | 
9 | CN1C(C)(C)CC(Nc2nc(Nc3cccc(OC(F)(F)F)c3)ncc2C(F)(F)F)CC1(C)C [Compound I-242] |  | 8.19
10 | CN1C(C)(C)CC(Nc2nc(Nc3cccc(NS(C)(=O)=O)c3)ncc2F)CC1(C)C [Compound I-243] | 0.684 | 
11 | CN1C(C)(C)CC(Nc2nc(Nc3ccc(O)cc3)ncc2F)CC1(C)C [Compound I-252] | 10.2 | 
12 | CN1CCN(c2ccc(Nc3ncc(F)c(NC4CC(C)(C)NC(C)(C)C4)n3)cc2C(F)(F)F)CC1 [Compound I-255] | 0.236 | 
13 | CN1CCN(c2ccc(Nc3ncc(F)c(NC4CC(C)(C)NC(C)(C)C4)n3)cc2Cl)CC1 [Compound I-256] | 0.246 | 
14 | CC1(C)CC(Nc2nc(Nc3ccc(N4CCN(S(C)(=O)=O)CC4)c(C(F)(F)F)c3)ncc2F)CC(C)(C)N1 [Compound I-257] | 0.423 | 
15 | CC1(C)CC(Nc2nc(Nc3ccc(N4CCN(S(C)(=O)=O)CC4)c(Cl)c3)ncc2F)CC(C)(C)N1 [Compound I-258] | 0.399 | 
16 | CN1CC2(C)CN(c3ccc(Nc4ncc(F)c(NC5CC(C)(C)N(C)C(C)(C)C5)n4)cc3C(F)(F)F)CC(C)(C1)C2 [Compound I-259] | 2.54 | 
17 | CN1C(C)(C)CCC(Nc2nc(Nc3ccc(N4CCOCC4)c(C(F)(F)F)c3)ncc2F)CC1(C)C (stereo not shown) [Compound I-261, 5-Fluoro-N2-[4-morpholine-3-trifluoromethyl]phenyl-N4-(1,2,2,7,7-pentamethylazepan-4-yl)-2,4-pyrimidinediamine] | 4.67 | 
18 | COc1ccc(Nc2ncc(F)c(NC3CCC(C)(C)N(C)C(C)(C)C3)n2)cc1Cl (stereo not shown) [Compound I-262, 5-Fluoro-N2-[3-chloro-4-methoxy]phenyl-N4-(1,2,2,7,7-pentamethylazepan-4-yl)-2,4-pyrimidinediamine] | 14.8 | 
19 | Cc1ccc(Nc2ncc(F)c(NC3CCC(C)(C)N(C)C(C)(C)C3)n2)cc1C#N (stereo not shown) [Compound I-263, 5-Fluoro-N2-[4-(methyl)-3-cyano]phenyl-N4-(1,2,2,7,7-pentamethylazepan-4-yl)-2,4-pyrimidinediamine] | 10.9 | 
20 | CN1C(C)(C)CCC(Nc2nc(Nc3ccc(N4CCN(S(C)(=O)=O)CC4)c(C(F)(F)F)c3)ncc2F)CC1(C)C (stereo not shown) [Compound I-264, 5-Fluoro-N2-[4-methylsulfonylpiperazin-lyl-3-trifluoromethyl]phenyl-N4-(1,2,2,7,7-pentamethylazepan-4-yl)-2,4-pyrimidinediamine] | 4.3 | 
21 | CN1C(C)(C)CCC(Nc2nc(Nc3cc(Cl)cc(Cl)c3)ncc2F)CC1(C)C (stereo not shown) [Compound I-265, 5-Fluoro-N2-[3,5-dichloro]phenyl-N4-(1,2,2,7,7-pentamethylazepan-4-yl)-2,4-pyrimidinediamine] | 4.32 | 
22 | COc1cc(Nc2ncc(F)c(NC3CCC(C)(C)N(C)C(C)(C)C3)n2)cc(OC)c1OC (stereo not shown) [Compound I-266, 5-Fluoro-N2-[3,4,5-trimethoxy]phenyl-N4-(1,2,2,7,7-pentamethylazepan-4-yl)-2,4-pyrimidinediamine] | 11.2 | 
23 | COc1ccc(Nc2ncc(F)c(NC3CCC(C)(C)N(C)C(C)(C)C3)n2)cc1OC (stereo not shown) [Compound I-267, 5-Fluoro-N2-[3,4-dimethoxy]phenyl-N4-(1,2,2,7,7-pentamethylazepan-4-yl)-2,4-pyrimidinediamine] | 11.7 | 
24 | COc1ccc(Nc2ncc(F)c(NC3CCC(C)(C)N(C)C(C)(C)C3)n2)cc1C(F)(F)F (stereo not shown) [Compound I-268, 5-Fluoro-N2-[4-methoxy-3-trifluoromethyl]phenyl-N4-(1,2,2,7,7-pentamethylazepan-4-yl)-2,4-pyrimidinediamine] | 31.7 | 
25 | COc1cccc(Nc2ncc(F)c(NC3CCC(C)(C)N(C)C(C)(C)C3)n2)c1 (stereo not shown) [Compound I-269, 5-Fluoro-N2-[3-methoxy]phenyl-N4-(1,2,2,7,7-pentamethylazepan-4-yl)-2,4-pyrimidinediamine] | 8.2 | 

Row | Structure (SMILES) | IC50 (24 hours) [µM] | IC50 (Homo sapiens, T-cell, 24 h) [µM]
26 | CN1CCN(c2ccc(Nc3ncc(F)c(NC4CCC(C)(C)N(C)C(C)(C)C4)n3)cc2C(F)(F)F)CC1 (stereo not shown) [Compound I-270, 5-Fluoro-N2-[4-methylpiperizine-3-trifluoromethyl]phenyl-N4-(1,2,2,7,7-pentamethylazepan-4-yl)-2,4-pyrimidinediamine] | 3.45 | 
27 | CN1C(C)(C)CC(Nc2nc(Nc3cnc(N4CCOCC4)c(C(F)(F)F)c3)ncc2F)CC1(C)C [Compound I-271] | 0.67 | 
28 | COc1ccc(Nc2ncc(Br)c(NC3CC(C)(C)N(C)C(C)(C)C3)n2)cc1C(F)(F)F [Compound I-272] | 0.826 | 
29 | COc1ccc(Nc2ncc(Br)c(NC3CC(C)(C)N(C)C(C)(C)C3)n2)cc1OC [Compound I-274] | 1.21 | 
30 | CN1C(C)(C)CC(Nc2nc(Nc3cccc(OC(F)(F)F)c3)ncc2Br)CC1(C)C [Compound I-275] | 0.617 | 
31 | COc1cc(Nc2ncc(Br)c(NC3CC(C)(C)N(C)C(C)(C)C3)n2)cc(OC)c1OC [Compound I-276] | 1.83 | 
32 | Cc1ccc(Nc2ncc(Br)c(NC3CC(C)(C)N(C)C(C)(C)C3)n2)cc1C#N [Compound I-277] | 0.206 | 
33 | CN1C(C)(C)CC(Nc2nc(Nc3cc(Cl)cc(Cl)c3)ncc2F)C1(C)C (stereo not shown) [Compound I-279, 5-Fluoro-N2-(3,5-dichloro) phenyl-N4-(1,2,2,5,5-pentamethylpyrrolidin-3-yl)-2,4-pyrimidinediamine] | 7.44 | 
34 | COc1ccc(Nc2ncc(F)c(NC3CC(C)(C)N(C)C3(C)C)n2)cc1Cl (stereo not shown) [Compound I-280, 5-Fluoro-N2-(3-chloro-4-methoxy)phenyl-N4-(1,2,2,5,5-pentamethylpyrrolidin-3-yl)-2,4-pyrimidinediamine] | 2.73 | 
35 | COc1ccc(Nc2ncc(F)c(NC3CC(C)(C)N(C)C3(C)C)n2)cc1OC (stereo not shown) [Compound I-281, 5-Fluoro-N2-(3,4-dimethoxy)phenyl-N4-(1,2,2,5,5-pentamethylpyrrolidin-3-yl)-2,4-pyrimidinediamine] | 17.1 | 
36 | COc1cc(Nc2ncc(F)c(NC3CC(C)(C)N(C)C3(C)C)n2)cc(OC)c1OC (stereo not shown) [Compound I-282, 5-Fluoro-N2-(3,4,5-trimethoxy)phenyl-N4-(1,2,2,5,5-pentamethylpyrrolidin-3-yl)-2,4-pyrimidinediamine] | 15.3 | 
37 | COc1ccc(Nc2ncc(F)c(NC3CC(C)(C)N(C)C3(C)C)n2)cc1C(F)(F)F (stereo not shown) [Compound I-283, 5-Fluoro-N2-(4-methoxy-3-trifluoromethyl)phenyl-N4-(1,2,2,5,5-pentamethylpyrrolidin-3-yl)-2,4-pyrimidinediamine] | 2.7 | 
38 | CN1C(C)(C)CC(Nc2nc(Nc3cccc(OC(F)(F)F)c3)ncc2F)C1(C)C (stereo not shown) [Compound I-284, 5-Fluoro-N2-(3-trifluoromethoxy)phenyl-N4-(1,2,2,5,5-pentamethylpyrrolidin-3-yl)-2,4-pyrimidinediamine] | 3.04 | 
39 | CN1CCN(c2ccc(Nc3ncc(F)c(NC4CC(C)(C)N(C)C4(C)C)n3)cc2C(F)(F)F)CC1 (stereo not shown) [Compound I-285, 5-Fluoro-N2-[4-(4-methylpiperazin-1-yl)-3-(trifluoromethyl)]phenyl-N4-(1,2,2,5,5-pentamethylpyrrolidin-3-yl)-2,4-pyrimidinediamine] | 1.23 | 
40 | CN1C(C)(C)CC(Nc2nc(Nc3ccc(N4CCN(S(C)(=O)=O)CC4)c(C(F)(F)F)c3)ncc2F)C1(C)C (stereo not shown) [Compound I-286] | 2.42 | 
41 | CN1C(C)(C)CC(Nc2nc(Nc3ccc(N4CCOCC4)c(C(F)(F)F)c3)ncc2F)C1(C)C (stereo not shown) [Compound I-287, 5-Fluoro-N2-[4-morpholino-3-(trifluoromethyl)]phenyl-N4-(1,2,2,5,5-pentamethylpyrrolidin-3-yl)-2,4-pyrimidinediamine] | 2.19 | 
42 | CN1CCN(c2ncc(Nc3ncc(F)c(NC4CC(C)(C)N(C)C(C)(C)C4)n3)cc2Cl)CC1 [Compound I-288] | 0.374 | 
43 | CN1C(C)(C)CC(Nc2nc(Nc3cnc(N4CCN(S(C)(=O)=O)CC4)c(Cl)c3)ncc2F)CC1(C)C [Compound I-289] | 0.424 | 
44 | CN1C(C)(C)CC(Nc2nc(Nc3cnc(N4CCOCC4)c(Cl)c3)ncc2F)CC1(C)C [Compound I-290] | 0.596 | 
45 | COC(=O)CCN1C(C)(C)CC(Nc2nc(Nc3ccc(OC)c(OC)c3)ncc2F)CC1(C)C [Compound I-291] |  | 22.3
46 | COC(=O)CCN1C(C)(C)CC(Nc2nc(Nc3cc(OC)cc(OC)c3)ncc2F)CC1(C)C [Compound I-292] |  | 2.48
47 | COC(=O)CCN1C(C)(C)CC(Nc2nc(Nc3ccc(OC)c(Cl)c3)ncc2F)CC1(C)C [Compound I-293] |  | 2.19
48 | COC(=O)CCN1C(C)(C)CC(Nc2nc(Nc3cc(Cl)cc(Cl)c3)ncc2F)CC1(C)C [Compound I-294] |  | 4.55
49 | COC(=O)CCN1C(C)(C)CC(Nc2nc(Nc3ccc(OC)c(C(F)(F)F)c3)ncc2F)CC1(C)C [Compound I-295] | 5.1 | 
